Measurements from patent US6716812B1, “Modulation of sperm function” (priority 1998, dated 2004).
Positions of bridges follow the written chain, without caps; N, C: chain ends. Non-standard residues stand in square brackets, D forms with d. Residues, ends and D or L forms follow the SMILES beside them. No end group written: not given here. pGlu = O=C1CC[C@@H](C(=O)O)N1

Experiments:
[1] = tested on: uncapacitated mouse sperm; experiment: Chlortetracycline (CTC) fluorescence analysis of capacitation in uncapacitated sperm; format: cell-based; conditions: 40 min incubation
Protocol: The contents of cauda epididymides (3-4 cauda per ml of medium) from mature TO male mice (Harlan Olac, Bicester, U.K.) were released into 2 ml modified Tyrode's medium (Fraser, 1993) in 30 mm sterile culture dishes and allowed to disperse for 5 min. For studies on uncapacitated sperm, suspensions were then filtered through short columns of Sephadex G-25 (medium grade; Pharmacia, Uppsala, Sweden) to remove non-motile cells. Filtered suspensions were aliquotted out to different treatment groups, treated with nothing (control), calcitonin or FPP (as a positive control) and then incubated for 40 min. Salmon calcitonin was used at a final concentration of 5 ng/ml, human calcitonin was used at 200 ng/ml and 20 ng/ml and FPP was used at 100 nM. These short-term incubations were carried out in 0.5 ml plastic microcentrifuge tubes at 37° C. in an atmosphere of 5% CO2, 5% O2, 90% N2. […] Three replicate experiments using uncapacitated sperm were carried out using salmon calcitonin and the higher concentration of human calcitonin (n=3); for the lower concentration of the human hormone, n=2.
(§1) Chlortetracycline (CTC) fluorescence analysis was carried out as described by Green et al. (1994). Assessments were made on an Olympus BX40 microscope equipped with phase contrast and BX-FLA epifluorescence optics using the wide blue-violet excitation cube (U-MWBV). The excitation beam passed through a 400-440 nm band pass filter and CTC fluorescence was observed through a DM 455 dichroic mirror. In each sample, at least 100 sperm were classified as expressing one of three patterns: F, with fluorescence over the entire head, a pattern characteristic of uncapacitated (non-fertilizing), acrosome-intact sperm; B, with a fluorescence-free band in the postacrosomal region, a pattern characteristic of capacitated (potentially fertilizing), acrosome-intact sperm; AR, with dull or absent fluorescence over the whole head, a pattern characteristic of acrosome-reacted (non-fertilizing) sperm.

[2] = tested on: human sperm; conditions: Green et al., 1996; cited from earlier work
[3] = tested on: mouse sperm; experiment: Subjective motility evaluation; format: cell-based; conditions: judged subjectively; concentrations as in the CTC experiments
Excerpt: In all experiments, a drop of each suspension was examined briefly for subjective motility evaluation.

[4] = tested on: capacitated mouse sperm; experiment: Spontaneous acrosome loss in capacitated suspensions (CTC); format: cell-based; conditions: for incidence of spontaneously acrosome-reacted sperm vs untreated control: 40 min after 90 min capacitation
Protocol: as §1
Sperm suspensions were prepared as described earlier for CTC analysis and incubated for 90 min to allow capacitation. Suspensions were then filtered to remove non-motile cells and a sample was stained with CTC (Con-90). The remaining suspension was aliquotted out to different treatment groups and treated for 40 min with nothing (Con-130), 100 nM FPP (positive control), 100 nM FPP+100 ng/ml pertussis toxin (F+PT, negative control), 5 ng/ml salmon calcitonin (CT) and 5 ng/ml salmon calcitonin+100 ng/ml pertussis toxin (CT+PT); (n=3).

[5] = tested on: human sperm; conditions: some (higher) concentrations; Gnessi et al, 1984; cited from earlier work
[6] = tested on: uncapacitated mouse sperm suspensions; experiment: In vitro fertilization analysis; format: cell-based; conditions: 40 min preincubation, 65 min coincubation
Protocol: The contents of the cauda epididymides from 2 mature TO male mice were released into 2 ml modified Tyrode's medium in 30 mm sterile culture dishes and allowed to disperse for 5 min. Suspensions were then divided into 3 treatment groups, each in a 30 mm sterile dishes, and treated with nothing (Control) or with calcitonin. As in the CTC experiments, salmon calcitonin was used at a final concentration of 5 ng/ml and human calcitonin at 200 ng/ml. Each suspension was overlaid with autoclaved liquid paraffin and incubated for 40 min at 37° C. in an atmosphere of 5% O2, 5% CO2, 90% N2.
Mature female TO mice were induced to superovulate by intraperitoneal injections of 7.5 IU equine chorionic gonadotrophin and approximately 50 hr later with 5 IU human chorionic gonadotrophin (hCG). Approximately 15 hr post-hCG, oviducts were removed and cumulus masses containing the oocytes were released into medium covered with liquid paraffin. Preincubated sperm suspensions were diluted ^˜10 fold into medium of the same composition used for initial incubation (i.e., without or with calcitonin); 400 μl of diluted suspension were transferred to culture dishes, covered with liquid paraffin and oocytes were added. […]
Oocytes were stained with 0.75% aceto orcein, mounted and assessed (Fraser, 1993). […]

[7] = pertussis toxin at 100 ng/ml, 40 min

Compound: NC(=O)[C@@H]1CCCN1C(=O)[C@H](CCC(=O)O)NC(=O)[C@@H]1CCC(=O)N1 [FPP, pyroglutamylglutamylprolineamide] ([pGlu]-Glu-Pro-NH2)
- proportion of F pattern cells (uncapacitated, non-fertilizing) vs untreated ([1]; 100 nM): significantly lower proportion
- proportion of B pattern cells (capacitated, potentially fertilizing) vs untreated ([1]; 100 nM, P<0.01, positive control): significantly higher proportion
- human sperm fertilizing ability [2]: stimulate human sperm fertilizing ability
- sperm motility vs untreated controls [3]: more active motility
- incidence of spontaneously acrosome-reacted sperm vs untreated control ([4]; 100 nM, P<0.01, n=3, positive control): significantly lower incidence

Compound: calcitonin
- sperm motility vs untreated controls [3]: more active motility

Compound: human calcitonin: 32-amino acid hypocalcemic hormone of human origin (CGNLSTCMLGTYTQDFNKFHTFPQTAIGVGAP-NH2; disulfide 1-7; ends not checked; UniProt P01258 85-116, looked up)
- proportion of F pattern cells (uncapacitated, non-fertilizing) vs untreated ([1]; 20 ng/ml): significantly lower proportion
- proportion of B pattern cells (capacitated, potentially fertilizing) vs untreated ([1]; 20 ng/ml, P<0.025, n=2): significantly higher proportion
- proportion of F pattern cells (uncapacitated, non-fertilizing) vs untreated ([1]; 200 ng/ml): significantly lower proportion
- proportion of B pattern cells (capacitated, potentially fertilizing) vs untreated ([1]; 200 ng/ml, P<0.01, n=3): significantly higher proportion
- effect on human sperm motility [5]: not
- fertilized oocytes obtained vs untreated control sperm ([6]; 200 ng/ml, P<0.05, n=4): significantly more fertilized oocytes

Compound: pertussis toxin
- effect on the response (inhibition of spontaneous acrosome loss) to 5 ng/ml salmon calcitonin [4, 7]: abolished the responses
- effect on the response (inhibition of spontaneous acrosome loss) to 100 nM FPP [4, 7]: abolished the responses

Compound: salmon calcitonin
- proportion of F pattern cells (uncapacitated, non-fertilizing) vs untreated ([1]; 5 ng/ml): significantly lower proportion
- proportion of B pattern cells (capacitated, potentially fertilizing) vs untreated ([1]; 5 ng/ml, P<0.01, n=3): significantly higher proportion
- effect on human sperm motility [5]: negative effect
- fertilized oocytes obtained vs untreated control sperm ([6]; 5 ng/ml, P<0.025, n=4): significantly more fertilized oocytes
- incidence of spontaneously acrosome-reacted sperm vs untreated control ([4]; 5 ng/ml, P<0.01, n=3): significantly lower incidence
